Read-outs that look alike come from different tables or passages of the source.
Tests used:
[1] = tested on: Luc-40L mesothelioma cancer cells; experiment: Luc-40L mesothelioma model, survival (Example 4); format: in vivo, mouse; conditions: VIC-008 20 μg and/or AMD3100 1 μg/g body weight once a week for four weeks
[2] = tested on: AE17 mouse mesothelioma cell line; experiment: AE17 intraperitoneal malignant mesothelioma model: tumor weight and survival (Example 5); format: in vivo; conditions: VIC-008 20 μg per mouse, AMD3100 1 mg/kg i.p. weekly x4
[3] = tested on: Luc-AE17 mesothelioma cancer cells; experiment: Luc-AE17 mesothelioma model, survival (Example 4); format: in vivo, mouse; conditions: VIC-008 20 μg and/or AMD3100 1 μg/g body weight once a week for four weeks
[4] = tested on: AE17 mouse mesothelioma cell line; experiment: Ex vivo restimulation with recombinant mesothelin, intracellular IFN-γ in CD8+ T cells, AE17 mice; conditions: restimulated with recombinant mesothelin ex vivo
[5] = tested on: 40L mouse mesothelioma cell line; experiment: Immune profiling by flow cytometry of tissues from 40L tumor-bearing mice; format: in vivo; conditions: for Proportion of CD8+ T cells in total live cells compared to saline: one week after last treatment
[6] = tested on: 40L mouse mesothelioma cell line; experiment: Ex vivo restimulation with recombinant mesothelin, intracellular IFN-γ in CD8+ T cells, 40L mice; conditions: splenic CD8+ T cells, restimulated with recombinant mesothelin ex vivo
[7] = tested on: GFP-Foxp3 expressing CD4+ splenocytes (Treg cells); conditions: AMD3100 5 μg/ml, 24 hours
[8] = tested on: 40L mouse mesothelioma cell line; experiment: 40L intraperitoneal malignant mesothelioma model: tumor weight and survival (Example 5); format: in vivo; conditions: VIC-008 20 μg per mouse, AMD3100 1 mg/kg i.p. weekly x4
[9] = tested on: AE17 mouse mesothelioma cell line; format: in vivo; conditions: for Proportion of CD8+ T cells in total live cells compared to saline: one week after last treatment

With `c1cc(CN2CCCNCCNCCCNCC2)ccc1CN1CCCNCCNCCCNCC1` [AMD3100] the “Survival of tumor-bearing mice compared to saline” value [1] was “slight effect on survival”, the “Animal survival compared to saline” value [2] was “only modest benefit to survival” and the “Survival of tumor-bearing mice compared to saline” value [3] was “slight effect on survival”. For the same compound, the “Mesothelin-specific IFN-γ expression in CD8+ T cells compared to saline” value ([4]; lymph node CD8+ T cells) was “did not enhance”, the “Mesothelin-specific IFN-γ expression in CD8+ T cells compared to saline” value ([4]; splenic CD8+ T cells) was “did not enhance” and the “Proportion of PD-1-expressing CD8+ T cells compared to saline” value ([5]; spleens) was “significantly fewer”. For the same compound, the “Proportions of Treg cells” value ([5]; spleens) was “did not alter”, the “Proportion of CD8+ T cells in total live cells compared to saline” value ([5]; spleens) was “did not increase” and the “IL-2+ CD40L+ cells among the Foxp3+ CD25− Treg population” value ([5]; tumors) was “significantly more cells”. For the same compound, the “Proportion of PD-1-expressing CD8+ T cells compared to saline” value ([5]; tumors) was “significantly fewer”, the “Proportions of Treg in tumors compared to saline” value ([5]; tumors) was “significantly decreased” and the “Ratio of CD8+ T cells to Treg in tumors compared to saline” value ([5]; tumors) was “increased”. For the same compound, the “Ratio of CD25− cells to CD25+ cells within the Foxp3+ population” value ([5]; tumors) was “significantly increased”, the “Proportion of CD8+ T cells in total live cells compared to saline” value ([5]; tumors) was “did not increase” and the “Mesothelin-specific IFN-γ expression in CD8+ T cells compared to saline” value [6] was “did not enhance”. The “Ratio of the proportion of CD25− cells to CD25+ cells in the Foxp3+ CD4+ population” value ([7]; no anti-CD3/CD28 stimulation) was “did not change”, the “Conversion of Foxp3+ CD25− Treg into IL-2+ CD40L+ cells” value ([7]; with anti-CD3/CD28 antibodies (1 μg/ml), P=0.0015) was “converted more” and the “Ratio of the proportion of CD25− cells to CD25+ cells in the Foxp3+ CD4+ population” value ([7]; with anti-CD3/CD28 antibodies (1 μg/ml), P=0.0017) was “significantly increased”. For the same compound, the “Animal survival compared to saline” value [8] was “only modest benefit to survival”, the “Cell ratio of CD8+ T cells to Treg cells compared to saline” value ([9]; lymph nodes) was “significantly increased” and the “IL-2+ CD40L+ cells among the Foxp3+ CD25− Treg population” value ([9]; lymph nodes) was “significantly more cells”. For the same compound, the “Proportion of PD-1-expressing CD8+ T cells compared to saline” value ([9]; lymph nodes) was “significantly fewer”, the “Ratio of CD25− cells to CD25+ cells within the Foxp3+ population” value ([9]; lymph nodes) was “significantly increased” and the “Treg in the lymph nodes” value ([9]; lymph nodes) was “generally reduced”. For the same compound, the “Proportion of CD8+ T cells in total live cells compared to saline” value ([9]; lymph nodes) was “did not increase”, the “Proportion of PD-1-expressing CD8+ T cells compared to saline” value ([9]; spleens) was “significantly fewer” and the “Proportion of CD8+ T cells in total live cells compared to saline” value ([9]; spleens) was “did not increase”. The “Proportion of PD-1-expressing CD8+ T cells compared to saline” value ([9]; tumors) was “significantly fewer”, the “Proportions of Treg in tumors compared to saline” value ([9]; tumors) was “significantly decreased” and the “Ratio of CD8+ T cells to Treg in tumors compared to saline” value ([9]; tumors) was “increased”. For the same compound, the “Proportion of CD8+ T cells in total live cells compared to saline” value ([9]; tumors) was “did not increase”.

Source: patent US11364264B2, “Ex vivo antigen-presenting cells or activated CD-positive T cells for treatment of cancer” (priority 2016, dated 2022)
